Assay: xn = mol fraction of the nth substance listed
Details: 101 kPa, Liquid, Capillary tube (Ostwald / Ubbelohde) method

CCC(C)Cl (stereo unspecified) [2-chlorobutane] + CCCCCC
kinematic viscosity [m2/s]
Details	283.15 K	298.15 K	313.15 K
x1 = 0.0509	5.186e-07	4.579e-07	4.034e-07
x1 = 0.1002	5.147e-07	4.548e-07	4.012e-07
x1 = 0.1802	5.09e-07	4.501e-07	3.98e-07
x1 = 0.3029	5.025e-07	4.448e-07	3.948e-07
x1 = 0.4045	4.989e-07	4.42e-07	3.932e-07
x1 = 0.4991	4.975e-07	4.408e-07	3.926e-07
x1 = 0.5974	4.968e-07	4.401e-07	3.926e-07
x1 = 0.6992	4.982e-07	4.406e-07	3.939e-07
x1 = 0.7996	5.007e-07	4.419e-07	3.961e-07
x1 = 0.8981	5.055e-07	4.447e-07	3.993e-07
x1 = 0.9477	5.086e-07	4.465e-07	4.015e-07

CC(C)CCl [1-chloro-2-methylpropane] + CCCCCCC
kinematic viscosity [m2/s]
Details	283.15 K	298.15 K	313.15 K
x2 = 0.0507	5.818e-07	4.95e-07	4.381e-07
x2 = 0.0979	5.817e-07	4.97e-07	4.396e-07
x2 = 0.2004	5.851e-07	5.015e-07	4.438e-07
x2 = 0.3008	5.905e-07	5.064e-07	4.483e-07
x2 = 0.3993	5.97e-07	5.134e-07	4.536e-07
x2 = 0.4999	6.054e-07	5.215e-07	4.599e-07
x2 = 0.5973	6.156e-07	5.306e-07	4.663e-07
x2 = 0.6994	6.268e-07	5.403e-07	4.733e-07
x2 = 0.8006	6.397e-07	5.516e-07	4.809e-07
x2 = 0.9002	6.538e-07	5.633e-07	4.894e-07
x2 = 0.9491	6.615e-07	5.692e-07	4.94e-07

CC(C)(C)Cl [2-chloro-2-methylpropane] + CCCCCC
kinematic viscosity [m2/s]
Details	283.15 K	298.15 K	313.15 K
x2 = 0.0495	6.722e-07	5.527e-07	4.671e-07
x2 = 0.0989	6.489e-07	5.369e-07	4.565e-07
x2 = 0.2019	6.091e-07	5.105e-07	4.391e-07
x2 = 0.2987	5.81e-07	4.916e-07	4.266e-07
x2 = 0.4043	5.575e-07	4.756e-07	4.162e-07
x2 = 0.4985	5.415e-07	4.651e-07	4.095e-07
x2 = 0.6024	5.287e-07	4.571e-07	4.048e-07
x2 = 0.7017	5.203e-07	4.516e-07	4.019e-07
x2 = 0.7996	5.151e-07	4.489e-07	4.009e-07
x2 = 0.9025	5.123e-07	4.478e-07	4.016e-07
x2 = 0.9498	5.119e-07	4.483e-07	4.023e-07

CCCCCl [1-chlorobutane] + CCCCCC
kinematic viscosity [m2/s]
Details	283.15 K	298.15 K	313.15 K
x1 = 0.0508	5.501e-07	4.74e-07	4.182e-07
x1 = 0.0992	5.449e-07	4.701e-07	4.169e-07
x1 = 0.1972	5.351e-07	4.634e-07	4.118e-07
x1 = 0.2966	5.269e-07	4.577e-07	4.08e-07
x1 = 0.3976	5.198e-07	4.531e-07	4.048e-07
x1 = 0.5009	5.145e-07	4.495e-07	4.027e-07
x1 = 0.6006	5.112e-07	4.467e-07	4.011e-07
x1 = 0.6982	5.092e-07	4.451e-07	4.005e-07
x1 = 0.7972	5.082e-07	4.455e-07	4.01e-07
x1 = 0.8979	5.094e-07	4.464e-07	4.023e-07
x1 = 0.9472	5.103e-07	4.474e-07	4.027e-07

CCCCCl [1-chlorobutane] + CCCCCCC
kinematic viscosity [m2/s]
Details	283.15 K	298.15 K	313.15 K
x1 = 0.0508	5.595e-07	4.824e-07	4.248e-07
x1 = 0.1017	5.632e-07	4.857e-07	4.278e-07
x1 = 0.1981	5.703e-07	4.927e-07	4.335e-07
x1 = 0.2989	5.788e-07	5e-07	4.396e-07
x1 = 0.4022	5.882e-07	5.088e-07	4.471e-07
x1 = 0.4998	5.984e-07	5.177e-07	4.545e-07
x1 = 0.6008	6.102e-07	5.278e-07	4.624e-07
x1 = 0.6989	6.229e-07	5.386e-07	4.705e-07
x1 = 0.7985	6.367e-07	5.501e-07	4.792e-07
x1 = 0.898	6.52e-07	5.626e-07	4.882e-07
x1 = 0.9498	6.608e-07	5.692e-07	4.935e-07

CCC(C)Cl (stereo unspecified) [2-chlorobutane] + CCC(C)CC
kinematic viscosity [m2/s]
Details	283.15 K	298.15 K	313.15 K
x2 = 0.0518	5.193e-07	4.574e-07	4.031e-07
x2 = 0.101	5.142e-07	4.542e-07	4.004e-07
x2 = 0.2014	5.066e-07	4.483e-07	3.958e-07
x2 = 0.3025	4.995e-07	4.431e-07	3.919e-07
x2 = 0.4027	4.943e-07	4.39e-07	3.885e-07
x2 = 0.4998	4.906e-07	4.362e-07	3.865e-07
x2 = 0.6043	4.881e-07	4.345e-07	3.851e-07
x2 = 0.7008	4.87e-07	4.34e-07	3.844e-07
x2 = 0.8004	4.874e-07	4.337e-07	3.847e-07
x2 = 0.8981	4.897e-07	4.344e-07	3.858e-07
x2 = 0.9481	4.911e-07	4.356e-07	3.868e-07

CCC(C)Cl (stereo unspecified) [2-chlorobutane] + CCCCCCC
kinematic viscosity [m2/s]
Details	283.15 K	298.15 K	313.15 K
x1 = 0.0506	5.287e-07	4.649e-07	4.086e-07
x1 = 0.0989	5.334e-07	4.686e-07	4.121e-07
x1 = 0.2012	5.44e-07	4.78e-07	4.202e-07
x1 = 0.3016	5.558e-07	4.876e-07	4.283e-07
x1 = 0.3997	5.677e-07	4.978e-07	4.37e-07
x1 = 0.4984	5.812e-07	5.087e-07	4.461e-07
x1 = 0.5994	5.966e-07	5.206e-07	4.558e-07
x1 = 0.6994	6.128e-07	5.331e-07	4.652e-07
x1 = 0.7996	6.304e-07	5.467e-07	4.757e-07
x1 = 0.9006	6.496e-07	5.609e-07	4.866e-07
x1 = 0.9503	6.6e-07	5.684e-07	4.927e-07

Reference: the NIST ThermoML archive (doi:10.1021/je200213h)
